In assay [1] the target is Sodium-dependent dopamine transporter (Homo sapiens, UniProt Q01959). The assay can be described thus: Inhibition of [3H]WIN-35428 binding to human dopamine transporter (hDAT).
Assay [2] has as its target Sodium-dependent serotonin transporter (Homo sapiens, UniProt P31645). The assay can be described thus: Inhibition of [3H]citalopram binding to human serotonin transporter (hSERT).
A short description of assay [3]: Inhibition of [3H]WIN-35428 binding to dopamine transporter (DAT).

Sequence of Sodium-dependent dopamine transporter (Q01959 whole entry): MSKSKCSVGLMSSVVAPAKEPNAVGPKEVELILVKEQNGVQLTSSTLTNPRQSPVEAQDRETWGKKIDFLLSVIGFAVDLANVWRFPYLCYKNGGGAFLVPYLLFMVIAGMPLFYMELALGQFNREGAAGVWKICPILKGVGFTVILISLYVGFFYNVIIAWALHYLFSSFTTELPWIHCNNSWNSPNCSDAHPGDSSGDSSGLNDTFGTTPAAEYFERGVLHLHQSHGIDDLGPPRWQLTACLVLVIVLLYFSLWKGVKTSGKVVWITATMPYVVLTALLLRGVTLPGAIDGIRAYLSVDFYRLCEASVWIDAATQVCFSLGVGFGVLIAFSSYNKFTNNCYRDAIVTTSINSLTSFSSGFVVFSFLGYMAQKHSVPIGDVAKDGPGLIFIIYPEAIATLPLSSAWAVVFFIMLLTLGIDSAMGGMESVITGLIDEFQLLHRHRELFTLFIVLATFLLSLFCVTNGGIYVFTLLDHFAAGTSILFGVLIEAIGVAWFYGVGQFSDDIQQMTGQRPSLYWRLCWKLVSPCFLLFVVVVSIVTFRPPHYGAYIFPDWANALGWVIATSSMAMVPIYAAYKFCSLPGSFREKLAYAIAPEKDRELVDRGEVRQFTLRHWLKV
Sequence of Sodium-dependent serotonin transporter (P31645 whole entry): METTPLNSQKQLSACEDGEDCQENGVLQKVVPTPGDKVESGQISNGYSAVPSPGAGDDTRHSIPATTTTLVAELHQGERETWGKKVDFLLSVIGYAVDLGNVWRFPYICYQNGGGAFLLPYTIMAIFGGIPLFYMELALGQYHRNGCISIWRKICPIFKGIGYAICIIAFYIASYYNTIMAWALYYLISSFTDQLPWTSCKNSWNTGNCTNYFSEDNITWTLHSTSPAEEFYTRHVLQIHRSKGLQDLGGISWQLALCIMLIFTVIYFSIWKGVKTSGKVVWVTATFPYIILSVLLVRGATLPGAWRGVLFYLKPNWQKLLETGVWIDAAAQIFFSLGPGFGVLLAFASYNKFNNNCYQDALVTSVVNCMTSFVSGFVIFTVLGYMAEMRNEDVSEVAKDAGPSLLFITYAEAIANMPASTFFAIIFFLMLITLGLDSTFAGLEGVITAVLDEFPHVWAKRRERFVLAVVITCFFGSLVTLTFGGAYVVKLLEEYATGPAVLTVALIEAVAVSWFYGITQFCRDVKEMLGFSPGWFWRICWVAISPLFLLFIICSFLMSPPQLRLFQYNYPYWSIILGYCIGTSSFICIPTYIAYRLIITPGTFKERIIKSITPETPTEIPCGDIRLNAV

One may read the IC50 as the concentration that gives 50% inhibition. A low value points to greater potency in that assay. As for `COC(=O)C1=C(c2ccc(Cl)c(Cl)c2)CC2CCC1O2` (stereo unspecified), the IC50 in assay [1] was 12 nM. With `COC(=O)C1=C(c2ccccc2)CC2CCC1O2` (stereo unspecified), the IC50 in assay [2] and in assay [1] was more than 10000 nM each time. With `COC(=O)C1=C(c2ccc(Cl)cc2)CC2CCC1O2` (stereo unspecified), the values for the IC50 in assay [2] and in assay [1] were more than 60000 nM and 238 nM, respectively. For the compound `COC(=O)C1=C(c2ccc(Cl)c(Cl)c2)CC2CCC1S2` (stereo unspecified), the 50% inhibitory concentration (IC50) was found to be 3600 nM in assay [2] and 4.5 nM in assay [1].

For the compound `COC(=O)C1=C(c2ccc(Cl)cc2)CC2CCC1S2` (stereo unspecified), the IC50 was more than 10000 nM in assay [2] and 13 nM in assay [1]. Taken in the same sequence, the figures for `COC(=O)C1=C(c2ccc(Br)cc2)CC2CCC1O2` (stereo unspecified) were more than 30000 nM and 62 nM. `COC(=O)C1=C(c2ccccc2)CC2CCC1S2` (stereo unspecified): the IC50 in assay [2] was more than 10000 nM; in assay [1], 910 nM. As to `COC(=O)C1=C(c2ccc(I)cc2)CC2CCC1O2` (stereo unspecified), the figures for the IC50 in assay [2] and in assay [1] were 4800 nM and 68 nM, respectively. Consider `COC(=O)C1=C(c2ccc(Br)cc2)CC2CCC1S2` (stereo unspecified), for which the IC50 in assay [2] is more than 25000 nM; in assay [1], 9.1 nM.

With `COC(=O)C1=C(c2ccc(F)cc2)CC2CCC1O2` (stereo unspecified), the IC50 in assay [2] was more than 50000 nM; in assay [1], 2730 nM. Turning to `COC(=O)C1=C(c2ccc(F)cc2)CC2CCC1S2` (stereo unspecified), the IC50 in assay [2] amounted to 28000 nM; in assay [1], 220 nM. As for `COC(=O)C1=C(c2ccc(I)cc2)CC2CCC1S2` (stereo unspecified), the IC50 in assay [2] was 8700 nM; in assay [1], 6.7 nM.

`COC(=O)C1=C(c2ccc3ccccc3c2)CC2CCC1S2` (stereo unspecified): the IC50 in assay [2] came to 1300 nM; in assay [1], 8 nM. The compound `COC(=O)[C@H]1[C@@H](OC(=O)c2ccccc2)C[C@@H]2CC[C@H]1N2C` [COCAINE] showed an IC50 in assay [3] of 100 nM.

The values are drawn from ChEMBL document CHEMBL1138717, “Synthesis of 8-thiabicyclo[3.2.1]oct-2-enes and their binding affinity for the dopamine and serotonin transporters” (Bioorg Med Chem Lett, 2004).
